Measurements: patent US20090203716A1, “Pyrimidine low molecular weight ligands for modulating hormone receptors” (The Government of the United States of America as …, priority 2006, published 2009)
pEC50: −log10 of the molar value.

How the values were obtained:
[1] = target: T1, human TSH receptor (Homo sapiens, UniProt P16473); test: intracellular cAMP accumulation, agonism at TSHR stably expressed in HEK EM 293 cells; type: cell-based; conditions: for % Max. Resp. @ TSHR in μM: % of maximum response of TSHR to TSH (100 mU/ml), * estimated maximum response at 100 μM compound; for pEC50: cAMP, HEK EM 293 cells, dose response 0-100 μM compound, ** estimated EC50, no plateau
T1 construct: expressed in transfected cells
T1 sequence (P16473 21-764): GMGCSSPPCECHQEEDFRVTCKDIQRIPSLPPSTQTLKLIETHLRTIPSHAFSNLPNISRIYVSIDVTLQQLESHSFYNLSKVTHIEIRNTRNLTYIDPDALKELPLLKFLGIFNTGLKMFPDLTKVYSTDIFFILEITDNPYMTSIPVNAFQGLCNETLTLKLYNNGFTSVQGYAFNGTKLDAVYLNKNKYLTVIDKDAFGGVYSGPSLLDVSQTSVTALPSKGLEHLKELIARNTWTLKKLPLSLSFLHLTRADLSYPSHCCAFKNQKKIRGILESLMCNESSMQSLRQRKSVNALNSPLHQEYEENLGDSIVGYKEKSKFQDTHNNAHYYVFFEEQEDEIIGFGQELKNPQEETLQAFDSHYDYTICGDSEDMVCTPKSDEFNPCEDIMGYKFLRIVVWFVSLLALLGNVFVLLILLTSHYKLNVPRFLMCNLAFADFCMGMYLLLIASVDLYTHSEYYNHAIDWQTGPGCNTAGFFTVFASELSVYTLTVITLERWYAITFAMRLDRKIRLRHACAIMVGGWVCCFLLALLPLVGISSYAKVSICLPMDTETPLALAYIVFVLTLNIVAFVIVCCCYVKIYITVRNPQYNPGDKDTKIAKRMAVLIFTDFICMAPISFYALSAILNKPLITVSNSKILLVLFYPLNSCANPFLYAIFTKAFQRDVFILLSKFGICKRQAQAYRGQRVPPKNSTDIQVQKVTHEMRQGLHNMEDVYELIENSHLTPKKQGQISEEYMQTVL
Procedure: With reference to Table 1, exemplary disclosed compounds were evaluated against human TSH receptor and human LHCG receptor that were stably expressed in HEK 293 EM cells as previously described by Libert et al. (Biochem. Biophys. Res. Commun. 1989, 165, 1250-1255); and by Schulz et al. (Mol. Endocrinol. 1999, 13, 181-190). Cell surface expression of TSH receptor and LHCG receptor were determined via FACS analysis (Kleinau, G.; Jäschke, H.; Neumann, S.; Lättig, S.; Paschke, R.; Krause, G. J. Biol. Chem. 2004, 279, 51590-51600). Agonism of compounds 3-20 were determined via measurement of intracellular cyclic AMP accumulation. […] For example, […] certain compounds disclosed herein exerted no discernible effect on the FSH receptor.
Cells were cultured for 48 h in 24-well plates before incubation for 1 h in serum-free DMEM containing 1 mM 3-isobutyl-1-methylxanthine (IBMX) (SIGMA) and bovine TSH (1.8 μM) (SIGMA) or human LH (1000 ng/ml) (Dr. A. Parlow, NIDDK National Hormone and Pituitary Program) or compounds 3-19 (0-100 μM) in a humidified 5% CO2 incubator. Following aspiration of the medium after incubation with compounds, cells were lysed using lysis buffer 1 of the cAMP Biotrak Enzymeimmunoassay (EIA) System (Amersham Biosciences). The cAMP content of the cell lysate was determined using the manufacturer's protocol. The efficacy of receptor activation by small molecule modulators is expressed as % of maximum response of LHCG receptor or TSH receptor to LH or TSH, respectively. The potency (EC50) was obtained from dose response curves (0-100 μM compound) by data analysis with GraphPad Prism 4 for Windows. With reference to FIG. 1, intracellular cAMP production was determined in response to 100 μM of each compound and is expressed as % of maximum response of TSHR/LHCGR to TSH (100 mU/ml)/LH (1000 ng/ml). The data are presented as mean±SEM of two independent experiments, each performed in duplicate.
(§1) Transiently transfected cells were cultured for 48 hours before the cAMP assay. HEK-EM 293 cells stably expressing TSHR, LHCGR or FSHR were seeded into 24-well plates with a density of 2.2×10^5 cells/well 24 hours before the cAMP assay. After removal of growth medium, cells were incubated for 1 hour in HBSS (Cellgro) with 10 mM HEPES (Cellgro) containing 1 mM 3-isobutyl-1-methylxanthine (IBMX) (Sigma) and the ligand of interest in a humidified 5% CO2 incubator at 37° C. The intracellular cAMP content was determined with the cAMP Biotrak Enzymeimmunoassay (EIA) System (GE Healthcare). Data were analyzed using GraphPad Prism 4 for Windows. Receptor expression was measured as described in Jaschke et al., J Biol Chem 281:9841-9844.

[2] = target: T2, human LHCG receptor (Homo sapiens, UniProt P22888); test: intracellular cAMP accumulation, agonism at LHCGR stably expressed in HEK EM 293 cells; type: cell-based; conditions: for % Max. Resp. @ LHCGR in μM: % of maximum response of LHCGR to LH (1000 ng/ml); for EC50: read-out: EC50 (LHCGR) in μM [95% C.I.], cAMP, HEK EM 293 cells, dose response 0-100 μM compound
T2 construct: expressed in transfected cells
T2 sequence (P22888 27-699): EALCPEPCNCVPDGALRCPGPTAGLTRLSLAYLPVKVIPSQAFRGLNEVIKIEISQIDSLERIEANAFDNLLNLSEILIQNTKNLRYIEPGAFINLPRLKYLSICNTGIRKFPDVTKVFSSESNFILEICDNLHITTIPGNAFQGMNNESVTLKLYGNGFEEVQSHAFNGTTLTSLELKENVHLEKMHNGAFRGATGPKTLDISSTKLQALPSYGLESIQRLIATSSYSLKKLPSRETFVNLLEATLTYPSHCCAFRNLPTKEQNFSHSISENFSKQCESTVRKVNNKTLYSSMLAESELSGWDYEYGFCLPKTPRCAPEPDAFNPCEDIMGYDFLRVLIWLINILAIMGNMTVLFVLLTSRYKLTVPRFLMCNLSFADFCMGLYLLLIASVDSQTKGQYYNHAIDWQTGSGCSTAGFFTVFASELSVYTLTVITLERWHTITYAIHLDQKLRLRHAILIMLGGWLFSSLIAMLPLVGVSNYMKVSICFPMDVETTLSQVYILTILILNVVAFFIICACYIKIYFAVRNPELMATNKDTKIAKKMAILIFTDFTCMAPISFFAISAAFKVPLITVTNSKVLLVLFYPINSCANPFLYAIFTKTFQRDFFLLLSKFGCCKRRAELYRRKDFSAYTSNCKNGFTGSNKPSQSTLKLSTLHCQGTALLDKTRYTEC
Procedure: With reference to Table 1, exemplary disclosed compounds were evaluated against human TSH receptor and human LHCG receptor that were stably expressed in HEK 293 EM cells as previously described by Libert et al. (Biochem. Biophys. Res. Commun. 1989, 165, 1250-1255); and by Schulz et al. (Mol. Endocrinol. 1999, 13, 181-190). Cell surface expression of TSH receptor and LHCG receptor were determined via FACS analysis (Kleinau, G.; Jäschke, H.; Neumann, S.; Lättig, S.; Paschke, R.; Krause, G. J. Biol. Chem. 2004, 279, 51590-51600).
Following aspiration of the medium after incubation with compounds, cells were lysed using lysis buffer 1 of the cAMP Biotrak Enzymeimmunoassay (EIA) System (Amersham Biosciences). The cAMP content of the cell lysate was determined using the manufacturer's protocol. […] The potency (EC50) was obtained from dose response curves (0-100 μM compound) by data analysis with GraphPad Prism 4 for Windows. […] The data are presented as mean±SEM of two independent experiments, each performed in duplicate.
as §1

Structure (SMILES)	% Max. Resp. @ TSHR in μM [1]	pEC50 [1]	% Max. Resp. @ LHCGR in μM [2] [%]	EC50 [2] [µM]
CSc1nc(-c2cccc(F)c2)c2c(N)c(C(=O)NC(C)(C)C)sc2n1 [Compound 18, N-tert-butyl-5-amino-4-(3-fluorophenyl)-2-(methylthio)thieno[2,3-d]pyrimidine-6-carboxamide]	8.1 ± 1.7%	–	–	1.2
COc1cccc(-c2nc(SC)nc3sc(C(=O)NC(C)(C)C)c(N)c23)c1OC [Compound 16, N-tert-butyl-5-amino-4-(2,3-dimethoxyphenyl)-2-(methylthio)thieno[2,3-d]pyrimidine-6-carboxamide]	3.0 ± 0.9%	–	50.1 ± 3.6	0.8
COc1cccc(-c2nc(SC)nc3sc(C(=O)N(C)C(C)(C)C)c(N)c23)c1 [Compound 7, N-tert-butyl-5-amino-4-(3-methoxyphenyl)-N-methyl-2-(methylthio)thieno[2,3-d]pyrimidine-6-carboxamide]	3.6 ± 1.9%	–	47.8 ± 2.8	0.8
COc1cccc(-c2nc(SC)nc3sc(C(=O)NCCO)c(N)c23)c1 [Compound 12, 5-amino-4-(3-methoxyphenyl)-N-(2-hydroxyethyl)-2-(methylthio)thieno[2,3-d]pyrimidine-6-carboxamide]	2.9 ± 0.5%	–	20.5 ± 2.7	–
COc1cccc(-c2nc(SC)nc3sc(C(=O)NCc4ccccc4)c(N)c23)c1 [Compound 14, 5-amino-N-benzyl-4-(3-methoxyphenyl)-2-(methylthio)thieno[2,3-d]pyrimidine-6-carboxamide]	3.0 ± 1.2%	–	7.8 ± 2.7	–
COc1cccc(-c2nc(SC)nc3sc(C(=O)NCC#N)c(N)c23)c1 [Compound 13, 5-amino-N-(cyanomethyl)-4-(3-methoxyphenyl)-2-(methylthio)thieno[2,3-d]pyrimidine-6-carboxamide]	3.6 ± 0.6%	–	20.3 ± 2.1	–

Other lines, results leading:

% Max. Resp. @ TSHR in μM [1]	pEC50 [1]	% Max. Resp. @ LHCGR in μM [2] [%]	EC50 [2] [µM]	Structure (SMILES)
>24.0* %	4.94	46.3 ± 6.6	1.5	COc1cccc(-c2nc(SC)nc3sc(C(=O)NC(C)(C)C)c(N)c23)c1F [Compound 17, N-tert-butyl-5-amino-4-(2-fluoro-3-methoxyphenyl)-2-(methylthio)thieno[2,3-d]pyrimidine-6-carboxamide]
6.1 ± 0.8%	–	8.5 ± 3.6	–	COc1cccc(-c2nc(SC)nc3sc(C(=O)NN)c(N)c23)c1 [Compound 8, 5-amino-4-(3-methoxyphenyl)-2-(methylthio)thieno[2,3-d]pyrimidine-6-carbohydrazide]
>30.3* %	4.92	23.8 ± 3.3	1.1	COc1cccc(-c2nc(SC)nc3sc(C(=O)OC(C)(C)C)c(N)c23)c1 [Compound 5, tert-butyl-5-amino-4-(3-methoxyphenyl)-2-(methylthio)thieno[2,3-d]pyrimidine-6-carboxylate]
11.2 ± 1.0%	–	63.9 ± 14.2	1.9	CSc1nc(-c2cccc(O)c2)c2c(N)c(C(=O)NC(C)(C)C)sc2n1 [Compound 19, N-tert-butyl-5-amino-4-(3-hydroxyphenyl)-2-(methylthio)thieno[2,3-d]pyrimidine-6-carboxamide]
1.9 ± 0.4%	–	2.4 ± 0.5	–	COc1cccc(-c2nc(SC)nc3sc(C(=O)NNC(=O)OC(C)(C)C)c(N)c23)c1 [Compound 11, N′-Boc-5-amino-4-(3-methoxyphenyl)-2-(methylthio)thieno[2,3-d]pyrimidine-6-carbohydrazide]
6.4 ± 0.6%	–	6.0 ± 3.1	–	COc1cccc(-c2nc(SC)nc3sc(C(=O)NNC(C)(C)C)c(N)c23)c1 [Compound 10, N′-tert-butyl-5-amino-4-(3-methoxyphenyl)-2-(methylthio)thieno[2,3-d]pyrimidine-6-carbohydrazide]
